Experimental data taken from patent US7795220B2, “Conformationally constrained parathyroid hormones with alpha-helix stabilizers” (The General Hospital Corporation, priority 2003, dated 2010).
Blank lines part the entries; values can stand above or below the molecule they belong to. Non-standard residues stand in square brackets, D forms with d. Residues, ends and D or L forms follow the SMILES beside them. No end group written: not given here. hArg = N=C(N)NCCCC[C@H](N)C(=O)O; Ac5c = NC1(C(=O)O)CCCC1; Deg = CCC(N)(CC)C(=O)O; Aib = CC(C)(N)C(=O)O

Tests used:
[1] = target: T1, hP1R-delNt (Homo sapiens, UniProt Q03431); test: cAMP stimulation in LdelNt-2 cells; assay type: cell-based
T1 construct: expressed in transfected cells
T1 sequence (Q03431 with tags, fused parts or gaps limits assumed): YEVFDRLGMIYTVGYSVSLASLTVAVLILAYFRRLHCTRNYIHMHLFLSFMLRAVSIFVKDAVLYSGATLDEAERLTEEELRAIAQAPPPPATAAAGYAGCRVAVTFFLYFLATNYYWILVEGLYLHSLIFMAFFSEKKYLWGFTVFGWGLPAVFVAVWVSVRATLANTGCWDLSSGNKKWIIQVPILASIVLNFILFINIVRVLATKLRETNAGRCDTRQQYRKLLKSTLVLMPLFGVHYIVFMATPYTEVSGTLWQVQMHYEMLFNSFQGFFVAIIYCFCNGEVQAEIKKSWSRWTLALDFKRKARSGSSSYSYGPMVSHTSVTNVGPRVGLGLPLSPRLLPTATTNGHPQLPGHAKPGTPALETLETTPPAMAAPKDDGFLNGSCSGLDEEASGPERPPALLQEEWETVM
Description: (§1) Cell Culture. The cell line HKRK-B28 (Takasu, H., et al., J. Bone Miner. Res. 14:11-20 (1999)) was derived from the porcine kidney cell line, LLC-PK1 by stable transfection with plasmid DNA encoding a recombinant P1R chimera comprised of the opposum P1R from the N-terminus to the mid region of TM3 and the rat P1R from the mid region of TM3 to the C-terminus. The surface density of the P1R in these cells is ˜280,000 receptors per cell. The clonal cell line LdelNt-2 was derived from LLC-PK, cells via stable transfection with a plasmid encoding P1R-delNt, a recombinant human PTH-1 receptor construct in which most of the amino-terminal extracellular domain is deleted. These cells, as well as COS-7 cells and SaOS-2-B10 cells, were cultured at […] in T-75 flasks ([…]) in Dulbecco's modified Eagle's medium (DMEM) supplemented with fetal bovine serum (10%), penicillin G (20 units/ml), streptomycin sulfate (20 μg/ml) and amphotericin B (0.05 μg/ml) in a humidified atmosphere containing 5% CO2. Stock solutions of EGTA/trypsin and antibiotics were from GLBCO; fetal bovine serum was from Hyclone Laboratories (Logan, Utah). COS-7 cells sub-cultured in 24-well plates were transfected with plasmid DNA (200 ng per well) encoding the wild-type human P1R or truncated human P1R deleted for residues (24-181) (Shimizu, M., et al., J. Biol. Chem. 275:21836-21843 (2000)) that was purified by cesium chloride/ethidium bromide density gradient centrifugation, and FuGENE 6 transfection reagent (Roche Indianapolis Ind.) according to the manufacturer's recommended procedure. All cells, in 24-well plates, were treated with fresh media and shifted to 33° C. for 12 to 24 h prior to assay.
(§2) cAMP Stimulation. Stimulation of cells with peptide analogs was performed in 24-well plates. Cells were rinsed with 0.5 mL of binding buffer (50 mM Tris-HCl, 100 mM NaCl, 5 mM KCl, 2 mM CaCl2, 5% heat-inactivated horse serum, 0.5% fetal bovine serum, adjusted to pH 7.5 with HCl) and treated with 200 μL of cAMP assay buffer (Delbecco's modified Eagle's medium containing 2 mM 3-isobutyl-1-methylxanthine, 1 mg/mL bovine serum albumin, 35 mM Hepes-NaOH, pH 7.4) and 100 μL of binding buffer containing varying amounts of peptide analog (final volume=300 μL). The medium was removed after incubation for 30 to 60 minutes at room temperature, and the cells were frozen on dry ice, lysed with 0.5 mL 50 mM HCl, and refrozen ([…]). The cAMP content of the diluted lysate was determined by radioimmunoassay. The EC50 response values were calculated using nonlinear regression (see below).
(§3) Data Calculation. Calculations were performed using Microsoft® Excel. Nonlinear regression analyses of binding and cAMP dose-response data were performed using the four-parameter equation: yp=Min+[(Max−Min)/(1+(IC50/x)^slope)]. The Excel Solver function was utilized for parameter optimization, as described previously (Carter, P. H., et al., Endocrinology 140: 4972-4981 (1999); Bowen, W. P., and Jerman, J. C., Trends in Pharmacol. Sci. 16: 413-417 (1995)). Differences between paired data sets were statistically evaluated using a one-tailed Student's t-test, assuming unequal variances for the two sets.
Agonist activities of selected analogs in cells expressing P1R-delNt were examined. This PTH-1 receptor construct lacks most of the N domain, but nevertheless mediates full agonist responses to N-terminally modified PTH analogs, and thus enables the relative roles of the receptor's N and J domains to the ligand interaction process to be evaluated. The clonal cell line LdelNT-2 was used, which was derived from LLC-PK, cells by stable transfection with a plasmid encoding the human P1R-delNt construct.

[2] = system: P1R (recombinant P1R chimera) in HKRK-B28 cells; test: cAMP stimulation in HKRK-B28 cells; assay type: cell-based, opposum/rat chimera
Description: as §1, §2, §3

[3] = target: T2, P1R (recombinant P1R chimera) in HKRK-B28 cells (UniProt P25107+P25961, A364S/A509S/A517P/A524T/DEL519-521/E344G/G506A/H528S/I365V/I416T/I429T/K402R/K465R/L320I/M408V/N352H/S511P/S523T/T335G/T421L/T487S/V367L/V433I); test: biochemical; assay type: binding, opposum/rat chimera
T2 construct: the opposum P1R from the N-terminus to the mid region of TM3; the rat P1R from the mid region of TM3 to the C-terminus; expressed in transfected cells
T2 sequence (P25107+P25961 fused with the stated changes): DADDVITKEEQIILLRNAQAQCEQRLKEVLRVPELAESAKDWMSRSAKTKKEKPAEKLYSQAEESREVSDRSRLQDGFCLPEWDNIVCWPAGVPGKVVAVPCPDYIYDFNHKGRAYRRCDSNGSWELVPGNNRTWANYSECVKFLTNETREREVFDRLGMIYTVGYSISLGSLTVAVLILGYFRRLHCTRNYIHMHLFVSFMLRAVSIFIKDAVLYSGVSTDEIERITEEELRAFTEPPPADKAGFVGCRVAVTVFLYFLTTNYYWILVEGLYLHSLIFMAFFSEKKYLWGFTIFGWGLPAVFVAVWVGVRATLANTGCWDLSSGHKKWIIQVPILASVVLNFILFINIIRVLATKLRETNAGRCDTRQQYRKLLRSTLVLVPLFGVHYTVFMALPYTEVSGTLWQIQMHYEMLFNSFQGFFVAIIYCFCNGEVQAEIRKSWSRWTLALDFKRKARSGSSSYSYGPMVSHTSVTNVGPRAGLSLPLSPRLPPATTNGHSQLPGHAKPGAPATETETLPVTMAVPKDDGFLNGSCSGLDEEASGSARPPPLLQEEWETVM
Description: as §1
Competition Binding. Binding reactions were performed with HKRK-B28 cells or in COS-7 cells in 24-well plates. The cells were rinsed with 0.5 mL of binding buffer, and then treated successively with 100 μL binding buffer, 100 μL of binding buffer containing various amounts of unlabeled competitor ligand, and 100 μL of binding buffer containing ca. 100,000 cpm of ^125I-[Aib^1,3,Nle^8,Gln^10,Har^11,Ala^12,Trp^14,Arg^19,Tyr^21]rPTH(1-21) (SEQ. ID. NO. 36) (ca. 26 fmol; final volume=300 μL). Incubations were 4 to 6 h at 4° C., at which time near equilibrium conditions were attained. Cells were then placed on ice, the binding medium was removed, and the monolayer was rinsed three times with 0.5 mL of cold binding buffer. The cells were subsequently lysed with 0.5 mL 5N NaOH and counted for radioactivity. For each tracer and in each experiment, the non-specific binding was determined as the radioactivity that bound in the presence of the same unlabeled peptide at a concentration of 1 μM, and was ˜1% of total radioactivity added for each tracer. The maximum specific binding (B0) was the total radioactivity bound in the absence of competing ligand, corrected for nonspecific binding, and for each tracer, ranged from 8% to 20% of the total radioactivity added. Nonlinear regression was used to calculate binding IC50 values (see below). Scatchard transformations of homologous competition binding data derived from studies with 26 fmol of ^125I-[Aib^1,3,Nle^8,Gln^10,Har^11,Ala^12,Trp^14, Arg^19,Tyr^21]rPTH(1-21) (SEQ. ID. NO. 36) were employed for estimations of apparent equilibrium dissociation constant (kDapps) and total number of ligand binding sites (Bmax), assuming a single class of binding sites and equal affinities of the iodinated and non iodinated ligand.
as §3, with “Differences between paired data sets were statistically evaluated using a one-tailed Student's t-test, assuming unequal variances for the two sets.” left out

[4] = system: P1R; test: Antagonism of agonist-induced cAMP activity; assay type: cell-based; conditions: analog at 10^−5 M, agonist at 10^−9 M
Method: Polypeptides described herein can be screened for their agonistic or antagonistic properties using the cAMP accumulation assay. Cells expressing PTH-1 receptor on the cell surface are incubated with native PTH(1-84) (SEQ. ID. NO. 18) for 5-60 minutes at 37° C., in the presence of 2 mM IBMX (3-isobutyl-1-methyl-xanthine, Sigma, St. Louis, Mo.). Cyclic AMP accumulation is measured by specific radio-immunoassay. A compound that competes with native PTH(1-84) or PTH(1-34) (SEQ. ID. NO. 19) for binding to the PTH-1 receptor, and that inhibits the effect of native PTH(1-84) or PTH(1-34) on cAMP accumulation, is considered a competitive antagonist. Such a compound would be useful for treating hypercalcemia.
Ligands that function as antagonists can be useful for treating hyperparathyroidism. Analogs of [Ac5c^1, Aib^3, M]PTH(1-14)(parent) (SEQ. ID. NO. 15) containing N-terminal modifications predicted to dissociate signaling and binding affinity (e.g. desamino-1, Trp-2, Bpa-2, Arg-2, Deg-1,3).

EC50 [1]: 6.4 ± 1.6 nM
Molecule: CC[C@H](C)[C@H](NC(=O)[C@H](CCC(=O)O)NC(=O)C(C)(C)NC(=O)[C@@H](NC(=O)C(C)(C)N)C(C)C)C(=O)N[C@@H](CCC(N)=O)C(=O)N[C@@H](CC(C)C)C(=O)N[C@@H](CCSC)C(=O)N[C@@H](Cc1c[nH]cn1)C(=O)N[C@@H](CCC(N)=O)C(=O)N[C@@H](CCCCNC(=N)N)C(=O)N[C@@H](C)C(=O)N[C@@H](CCCCN)C(=O)N[C@@H](Cc1c[nH]c2ccccc12)C(N)=O [[Aib^1,3,M]PTH(1-14), [Aib^1,3,Gln^10,Har^11,Ala^12,Trp^14]PTH(1-14)NH2] (H-[Aib]V[Aib]EIQLMHQ[hArg]AKW-NH2)

Molecule: CC[C@H](C)[C@H](NC(=O)[C@H](CCC(=O)O)NC(=O)C(CC)(CC)NC(=O)[C@@H](NC(=O)C(N)(CC)CC)C(C)C)C(=O)N[C@@H](CCC(N)=O)C(=O)N[C@@H](CC(C)C)C(=O)N[C@@H](CCSC)C(=O)N[C@@H](Cc1c[nH]cn1)C(=O)N[C@@H](CCC(N)=O)C(=O)N[C@@H](CCCCNC(=N)N)C(=O)N[C@@H](C)C(=O)N[C@@H](CCCCN)C(=O)N[C@@H](Cc1c[nH]c2ccccc12)C(N)=O [[Deg^1,3,M]PTH(1-14), [Deg^1,3,Gln^10,Har^11,Ala^12,Trp^14]PTH(1-14)NH2] (H-[Deg]V[Deg]EIQLMHQ[hArg]AKW-NH2)
maximum cAMP response as percent of that attained by the parent peptide ([2]; HKRK-B28 cells): 45%
cAMP agonist activity / signaling potency (in words) [2]: true partial agonist for cAMP formation
cAMP agonist activity / signaling potency (in words) ([2]; listed as [Deg^1,3,Gln^10,Har^11,Ala^12,Trp^14]pTH(1-14)NH2): partial agonist response
P1R binding affinity (in words) ([3]; in words): bound with adequate affinity
binding affinity higher than that of parent [M]PTH(1-14) ([3]; relative to parent [M]PTH(1-14)): 50 fold
EC50 [1]: 1400 ± 500 nM
agonist behavior (in words) [1]: partial agonist behavior
increase in cAMP accumulation (Emax) over basal [1]: 23 fold

Molecule: [Ac5c^1,Aib^3]PTH(1-9)NH2 ([Ac5c]V[Aib]EIQLMH-NH2; N-terminus assumed; SMILES CC[C@H](C)[C@H](NC(=O)[C@H](CCC(=O)O)NC(=O)C(C)(C)NC(=O)[C@@H](NC(=O)C1(N)CCCC1)C(C)C)C(=O)N[C@@H](CCC(N)=O)C(=O)N[C@@H](CC(C)C)C(=O)N[C@@H](CCSC)C(=O)N[C@@H](Cc1c[nH]cn1)C(N)=O) [[Ac5c^1,Aib^3,M]PTH(1-9)]
increase in cAMP levels relative to basal ([2]; HKRK-B28 cells, peptide at 1×10^−4M): six
cAMP agonist activity / signaling potency (in words) [2]: clear cAMP response
cAMP agonist activity at single high concentration (in words) ([2]; peptide at 10^−4M): clear agonist activity
inhibition of tracer radioligand binding ([3]; concentrations as high as 1×10^−4M, HKRK-B28 cells): neither peptide inhibited the binding

Molecule: [Ac5c^1,Trp^2,Aib^3, M]PTH(1-14) (H-[Ac5c]W[Aib]EIQLMHQ[hArg]AKW-NH2; SMILES CC[C@H](C)[C@H](NC(=O)[C@H](CCC(=O)O)NC(=O)C(C)(C)NC(=O)[C@H](Cc1c[nH]c2ccccc12)NC(=O)C1(N)CCCC1)C(=O)N[C@@H](CCC(N)=O)C(=O)N[C@@H](CC(C)C)C(=O)N[C@@H](CCSC)C(=O)N[C@@H](Cc1c[nH]cn1)C(=O)N[C@@H](CCC(N)=O)C(=O)N[C@@H](CCCCNC(=N)N)C(=O)N[C@@H](C)C(=O)N[C@@H](CCCCN)C(=O)N[C@@H](Cc1c[nH]c2ccccc12)C(N)=O)
inhibition of the agonist activity of [Aib1,3,M]PTH(1-14) [4]: 50%
